{
  "source": "patent US11911411B2",
  "about": "“Sulfated glycosaminoglycan biomaterials as proteoglycan mimics” (Glycologix, LLC, priority 2020, dated 2024)",
  "test_system": "bladder permeability in LPS-treated URO-MCP-1 mice",
  "assay": "CE-MRI (Gd-DTPA) assessment of bladder permeability, LPS-treated URO-MCP-1 transgenic mouse model of IC/BPS",
  "assay_type": "in vivo",
  "conditions": "20 mg/ml, 100 μl",
  "procedure": "The URO-MCP-1 transgenic model was described previously. Cystitis with accompanying permeability were induced by intravesical administration of LPS at a sub-noxious dose of 1 jig of LPS in 100 μl of saline (Day 0, 9 a.m.). One control group was administered saline (100 μl) only (saline URO-MCP-1). Another control group consisting of wild-type (WT) mice was also administered saline only (saline-WT). Bladders were flushed 3 times with saline to remove any excess LPS 1 hour post-LPS injection. The next day (Day 1, 9 am) animals were treated with CS or SuperGAG (20 mg/ml in saline; 100 μl) or saline and the initial permeability was assessed 3 hours later (Day 1, 12:00 p.m.).\nFor MRI assessment of permeability, mice were anesthetized and treated as described above, but instead of euthanizing the mice, on Day 1, Day 3, and Day 5 the mice were anesthetized, instilled with the contrast agent Gd-DTPA and placed into the MRI instrument. MRI experiments were conducted on a 7 Tesla 30 cm-bore Bruker Biospec MRI system (Bruker Biospin Corporation, Woodlands, TX, U.S.A.). MRI scans were obtained at 1-, 3-, and 5-days following LPS instillation. For the bladder images, Gd-DTPA (0.034 mM Gd-DTPA diluted to 100 μl in saline), was administered via an intravesical catheter, for visualization of loss of permeability of the bladder urothelium. Bladder CE-MRI signal intensity changes were determined 7 minutes. post-contrast. For all MR images, a T1-weighted RARE (rapid acquisition with relaxation enhancement) MRI pulse sequence was used with the following parameters: repetition time (TR) of 1200 ms, echo time (TE) of 9 ms, a RARE factor of 4, 4 averages, an image slice thickness of 1 mm, a matrix of 256×256, a field-of-view (FOV) of 3.5×3.5 cm2, and with both motion and fat suppression. Animals were euthanized and the bladders placed in formalin for histopathology.",
  "data": [
    {"substance": "chondroitin sulfate [CS]", "values": [
      {"measurement": "percent change in MRI signal intensity versus LPS-treated URO-MCP-1 mice, day 1", "setting": "day 1, *p< (figure not given)", "result": "significant decrease"},
      {"measurement": "percent change in MRI signal intensity versus LPS-treated URO-MCP-1 mice, day 3", "setting": "day 3, ***p<0.0001 for both", "result": "significant decrease"},
      {"measurement": "percent change in MRI signal intensity versus LPS-treated URO-MCP-1 mice, day 5", "setting": "day 5, **p<0.01 for SuperGAG", "result": "not significantly different to control"}
    ]}
  ]
}
